Entries after “also recorded” stand apart in the source; their conditions may differ. Cf = 5(6)-carboxyfluorescein
How the values were obtained:
Assay type in all cases: cell-based
[1] = system: E. coli 498; experiment: Bacteriostatic growth-rate dose-response assay, E. coli 498; conditions: abaecin in combination with hymenoptaecin
Protocol: (§1) Initial coarse-level growth inhibition assays were carried out with concentrations of peptides up to 200 μM. Further assays of growth rates (bacteriostatic activity) and cell viability (bactericidal activity) were carried out on a finer scale. […] Growth rates were derived from spline-fitted growth curves to optical density (OD) data, while cell viability was assessed by plating cultures and counting colony-forming units after 18 h. Dose–response curves were fitted to both the bacteriostatic and bactericidal data with Markov Chain Monte Carlo parameter optimization (further details in electronic supplementary material). […]
(§2) v) Coarse growth inhibition assays. […]
(§3) The assa ys were carried out in 96-well plates (Griener Bio On e, Frick enh ausen, Germ an y) in an Eon™ Microplate Spectrophotometer (BioTek Instruments, VT, USA) for 16 h while r eco rding of changes in the OD600 at 20- min intervals. […] The AMPs used inthis assay are sh own in Tables S1and S4. vi) Dose response curv e quantif ication […]
(§4) 1.25, 2.5, 5, 10, and 20 μM) in rows, and 10 µl volumes of hymenoptaecin (final concentrations of 0, 0.625, 1.25, 2.5, 5, and 10 μM) in columns. […] Th e OD600 was measured ever y hour for 12 consecutive hours using a SpectraMax M2e microplate reader (Molecular Devices, Sunnyvale, USA). […]
(§5) Cell viability. […] Bacteria were grown for 18 h with AMPs before the number of viable cells was assessed. […]

[2] = system: E. coli JM83 cells; experiment: Atomic force microscopy imaging of bacterial cells; conditions: 20 µM abaecin, 1.5 h, 37°C
Protocol: Bacteria were prepared for imaging as previously described (see electronic supplementary material). The data were analysed with NANOSCOPE […] software v. 1.40 (Veeco, USA). Three fields on each mica disc were imaged. Three-dimensional images and section profiles were prepared using WSXM v. 5.0 software. The roughness values were measured over the entire bacterial cell surface on 3 × 3 µm^2 areas. The average surface root mean square (RMS) roughness was calculated from 25 fields (300 × 300 nm^2). The data were analysed using […] v. 6 (StatSoft, Inc., Tulsa, OK, USA). Statistical significance was determined by ANOVA (Tukey's honestly significant difference test). […]
5 μM h ymenopt aecin. […] Th e cell surface was imaged in Anal ytical Labo rator y, Facult y of Chemistry, UMCS, Lublin, Poland using a NanoScope V AFM (Veeco, USA. All measurements were carri ed out in “Peak Force QNM” mode usin g an NSG 30 silicon tip with a spring constant of 20 N/m (NT-MDT, Russia). The data were an al yzed wi th Nanoscope Anal ysis software v1.40 (Veeco, USA). Three fields on each mica disk were imaged. Three dimensional images and section profiles were prepared using WSxM v5.0 software. The roughness values were measured over the entire bacterial cell surface on 3×3 µm2 areas. The average surface root-mean-square (RMS) roughness was calculated from 25 fields (300×300 nm2). […]

[3] = system: E. coli 498; experiment: Bactericidal cell viability assay (CFU after 18 h), E. coli 498
Protocol: as §1, §2, §3, §4, §5

[4] = system: E. coli strain D31; experiment: Coarse growth inhibition assay, E. coli strain D31
Protocol: as §1
v) Coarse growth inhibition assays.
Bact eria in mid-logarithmic phase were used for all growth inhibition assays. The initial OD600 for all assa ys was set to 0.001 to ensure the full contact of each b acteri al cell with added AMPs.
The assa ys were carried out in 96-well plates (Griener Bio On e, Frick enh ausen, Germ an y) in an Eon™ Microplate Spectrophotometer (BioTek Instruments, VT, USA) for 16 h while r eco rding of changes in the OD600 at 20- min intervals. For each assa y, a control culture was included with medium onl y. The AMPs used inthis assay are sh own in Tables S1and S4. vi) Dose response curv e quantif ication
Growth inhibition assay. E. coli cells (DSM 498) wer e grown in Muller-Hinton broth (Sigma-Aldrich) for 14 h at 30 °C and count ed using a FastRead 102 counting cham ber ( Immune S yst ems, UK). The suspension w as adjusted in fresh mediu m to achieve a cell density of 5 x 104 per 80 µl. […]
as §4
Cell viability. […] Bacteria were grown for 18 h with AMPs before the number of viable cells was assessed. […] Colony-forming units (CFUs), each representing a viable cell from the culture, were counted at a dilution where each individual CFU could be distinguished.

**Q.** How did the “effect of abaecin on the MIC of hymenoptaecin” value [1] turn out when “abaecin: proline-rich peptide abaecin, species version not specified at the place (Cf-FVPYNPPRPGQSKPFPSFPGHGPFNPKIQWPYPLPNPGH-NH2)” was run?
**A.** reduce the minimal inhibitory concentration of hymenoptaecin

**Q.** And the “cell morphology and surface (AFM), abaecin alone” value [2]?
**A.** smoother than the control cells; also recorded: granules and grooves were visible although less pronounced, and there were fewer flagella

**Q.** And the “cell morphology and surface (AFM), abaecin alone” value ([2]; listed as Abaecin)?
**A.** no significant impact on gross morphology

**Q.** And the “impact on cell viability, abaecin alone” value ([3]; E. coli 498, concentrations tested up to 20 µM, CFU after 18 h)?
**A.** no impact on cell viability

**Q.** And the “lowest abaecin concentration that enhanced the bactericidal effects of hymenoptaecin” value ([3]; E. coli, in combination with hymenoptaecin)?
**A.** 1.25 µM

**Q.** And the “antibacterial activity, abaecin alone” value ([4]; E. coli D31, 20 µM (figure 1a) to 200 µM (data not shown), OD600, 16 h)?
**A.** unable to detect any antibacterial activity

**Q.** What about the “antibacterial activity, abaecin alone” value ([4]; E. coli, tested alone at concentrations of up to 200 μM) of the same substance?
**A.** no detectable activity

**Q.** And the “impact on bacterial growth or survival, abaecin alone” value ([4]; even at a concentration of 200 µM)?
**A.** no impact on bacterial growth or survival

Source: article PMC4426631, “Insect antimicrobial peptides show potentiating functional interactions against Gram-negative bacteria” (Proceedings of the Royal Society B: Biological Sciences, 2015)
